Where “and” joins values, the source holds several entries; their conditions need not be identical. Identical values can stand only once. Entries after “also recorded” stand apart in the source; their conditions may differ. Where a SMILES comes first, the peptide text is derived from it. Where no end group is shown, it is not given here. [ ]: non-standard residue; d: D form.
Tests used:
[1] = target: T1, IL-6R (HEK-Blue IL-6 cells) (Homo sapiens, UniProt P08887); assay: TNF-α expression in HEK-Blue IL-6 cells (RT-qPCR), peptide screening; format: cell-based; conditions: IL-6 3.86 nM 6 h, peptides 1 μM, TCZ 3.44 μM, RT-qPCR normalized to 18S, 2-9 samples per group
T1 construct: host or cells: HEK-Blue IL-6 cells (HEK293-derived, H. sapiens)
Procedure: HEK293 and HEK-blue IL-6 cells were purchased and were used at fewer than 15 passages and tested mycoplasma negative. Cells were cultured in DMEM growth medium supplemented with 10% fetal bovine serum (FBS), 50 U/mL penicillin, and 50 μg/mL streptomycin. HEK-blue IL-6 cell media was also supplemented with HEK-Blue Selection (1:250). Ba/F3-polylinker, Ba/F3-mgp130, and Ba/F3-mgp130-IL-6Rα cells were cultured in RPMI 1640 growth medium supplemented with 10% FBS, 50 U/mL penicillin, and 50 μg/mL streptomycin. These cells were maintained in murine IL-3 at 10 ng/mL and puromycin at 1 μg/mL. Cells were cultured in standard experimental conditions (37 °C, 5% CO2).
For RT-qPCR experiments, cells were plated in 6-well plates at 70% of confluence and starved overnight. […] Samples were stored at −20 °C until analysis by quantitative PCR. […]
Samples (30 mg) of uterus, placenta, fetal membranes, as well as the fetal lung, brain, and intestine, were thawed and deposited in lysis buffer according to the manufacturer’s protocol (Qiagen RNeasy Plus Mini Kit). […] RNA was quantified with a NanoDrop 1000 spectrophotometer and samples (500 ng) were treated with DNAse I (1U). […] Quantitative gene expression analysis was performed on a Light Cycler 96 with iTaq Universal SYBR Green Supermix. […]
Target sequence in this assay (P08887 20-468): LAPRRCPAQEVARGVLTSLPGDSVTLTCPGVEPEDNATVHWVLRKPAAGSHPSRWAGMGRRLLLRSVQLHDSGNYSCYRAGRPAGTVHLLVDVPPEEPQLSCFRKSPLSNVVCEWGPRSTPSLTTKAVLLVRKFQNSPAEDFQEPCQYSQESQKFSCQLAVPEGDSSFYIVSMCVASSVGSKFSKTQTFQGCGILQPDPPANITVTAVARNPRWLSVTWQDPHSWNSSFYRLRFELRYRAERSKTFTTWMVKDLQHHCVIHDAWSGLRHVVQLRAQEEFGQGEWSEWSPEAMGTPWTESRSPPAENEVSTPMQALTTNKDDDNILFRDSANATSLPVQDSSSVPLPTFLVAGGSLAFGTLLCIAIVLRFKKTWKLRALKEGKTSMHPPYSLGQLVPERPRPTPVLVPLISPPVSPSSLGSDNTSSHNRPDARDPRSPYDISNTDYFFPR
Target sequence in this assay (P40189 23-918 partner): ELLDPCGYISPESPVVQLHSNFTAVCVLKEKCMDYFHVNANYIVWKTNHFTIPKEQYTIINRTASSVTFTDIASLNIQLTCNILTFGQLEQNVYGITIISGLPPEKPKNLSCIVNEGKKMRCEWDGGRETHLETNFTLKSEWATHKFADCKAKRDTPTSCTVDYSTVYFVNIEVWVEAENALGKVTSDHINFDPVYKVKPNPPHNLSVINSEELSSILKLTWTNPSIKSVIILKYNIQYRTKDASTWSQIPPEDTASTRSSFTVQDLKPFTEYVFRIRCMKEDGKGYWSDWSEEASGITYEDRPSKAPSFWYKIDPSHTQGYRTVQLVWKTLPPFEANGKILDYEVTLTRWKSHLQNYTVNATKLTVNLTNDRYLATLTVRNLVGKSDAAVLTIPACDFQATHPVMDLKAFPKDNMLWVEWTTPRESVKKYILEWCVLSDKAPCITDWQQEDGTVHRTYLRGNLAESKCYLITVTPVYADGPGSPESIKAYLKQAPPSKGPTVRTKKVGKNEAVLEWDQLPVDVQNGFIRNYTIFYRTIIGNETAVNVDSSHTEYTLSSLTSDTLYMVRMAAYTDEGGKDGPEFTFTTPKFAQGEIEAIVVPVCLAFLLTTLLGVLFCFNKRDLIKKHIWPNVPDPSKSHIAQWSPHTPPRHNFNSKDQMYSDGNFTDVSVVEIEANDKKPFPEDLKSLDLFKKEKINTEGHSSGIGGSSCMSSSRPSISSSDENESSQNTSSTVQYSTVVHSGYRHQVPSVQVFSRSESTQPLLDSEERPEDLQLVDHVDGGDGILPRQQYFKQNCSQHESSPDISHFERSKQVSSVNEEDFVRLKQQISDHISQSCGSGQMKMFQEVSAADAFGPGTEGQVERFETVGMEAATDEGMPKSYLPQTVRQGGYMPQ
Target sequence in this assay (P05231 30-212 partner): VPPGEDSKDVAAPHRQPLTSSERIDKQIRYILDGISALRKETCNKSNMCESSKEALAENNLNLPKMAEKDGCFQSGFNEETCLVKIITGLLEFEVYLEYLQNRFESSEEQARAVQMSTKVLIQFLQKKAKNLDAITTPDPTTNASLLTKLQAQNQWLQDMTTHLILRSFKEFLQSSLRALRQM

[2] = target: T1, IL-6R (HEK-Blue IL-6 cells); assay: [125I]-HSJ633 binding and displacement on HEK-Blue IL-6 cells; conditions: 3–4 samples per group
Procedure: (§1) The Bolton–Hunter reaction was utilized to conjugate the N-hydroxysuccinimide ester of 3-(4-hydroxyphenyl) propionic acid, a tyrosine-like residue, to primary amines as per the manufacturer’s instructions. Briefly, the peptide was dissolved in modification buffer (pH 9.0), then 100 μL of Bolton–Hunter Reagent was added and incubated for 3 h with periodic mixing. After incubating, the solution was dialyzed in PBS using a PlusOne Mini Dialysis Kit. Then 25 μL of peptide, 80 μL of PBS, and 25 μL of I^125 were combined in a precoated tube for 15 min. The reaction was stopped, and C-18 spin columns were used to perform washes and collect the iodine-marked peptide. Radioactivity measurements were made for each batch of radioactive peptides using a Gamma counter (Packard Cobra-II Auto Gamma Counter).
(§2) The HEK-blue IL-6 cells were allowed to acclimatize for two passages to complete the stabilization of the receptor. Prior to experiments, media was changed to adjust for a maximum quantity of 500 μL per well. Subsequently, unlabeled HSJ633 (10^−4 M) was added and allowed to reach equilibrium for 15 min. HEK293 and HEK-Blue IL-6 cells were then treated with the labeled HSJ633 in a quantity equating to 50,000 CPM per well. […] All samples were measured using a Gamma counter (Packard Cobra-II Auto Gamma Counter).

[3] = tested on: placenta; assay: HSJ633 biodistribution in placenta (fluorescence); format: in vivo, mouse; conditions: 1 mg/kg s.c., LPS 10 μg i.p., GD17, 4 h, pregnant mice; 11–12 samples per group
Procedure: Mice were euthanized after 4 h to analyze tissue distribution of the fluorescent-tagged compounds. Placentas were collected and fixed in 4% paraformaldehyde for 1 day and transferred into 30% sucrose for another day. Placental cryosections were stained with DAPI (0.0002 mg/mL) for nuclei. Images were captured using a ×20 objective with a Zeiss AxioScan.Z1. Fluorescence analysis was performed using ImageJ.

[4] = target: T1, IL-6R (HEK-Blue IL-6 cells); assay: IL-6-induced IL-1β, TNF-α and IL-6 mRNA in HEK-Blue IL-6 cells, dose-response (RT-qPCR); format: cell-based
Procedure: For in vitro dose–response experiments, HEK-blue IL-6 cells were allowed to acclimate for two passages to complete the stabilization of the receptor before experiments. Prior to experiments, cells at 70% of confluence were added to six-well plates, then starved overnight before media was changed 30 min prior to beginning the stimulation. After the 30 min pre-incubation, the cells were treated with HSJ633 (from 1 × 10^−12 to 1 × 10^−4 M) allowed to sit for 15 min, treated with 3.86 nM of IL-6, and incubated for 6 h. Cell lysis and mRNA extraction were performed by adding RiboZol. Samples were stored at −20 °C until RNA extraction and quantification (see section below).
For RT-qPCR experiments, cells were plated in 6-well plates at 70% of confluence and starved overnight. Cells were treated respectively with HSJ633, HSJ630, HSJ631, HSJ634, HSJ635, HSJ639 (1 × 10^−6 M), or TCZ (3.44 μM, based on validated doses (Sahraoui et al, [2014])) for TNF-α expression. For hIL-1, hIL-6, and hTNF-α expression, cells were treated with HSJ633 using concentrations ranging from 10^−11 to 10^−4 M, allowing for equilibrium over 15 min. Cells were then treated with […] of IL-6 for 6 h for both experiments. Cell lysis was performed by adding RIBOzol. Samples were stored at −20 °C until analysis by quantitative PCR. To determine the degree of phosphorylation of different proteins (STAT3, ERK, AKT, and p38), HEK-Blue IL-6 cells were treated with HSJ633 (10^−6 M), TCZ (3.44 uM) or vehicle for 30 min in DMEM only. Human IL-6 (3.86 nM) was added to the medium for 15 min to stimulate IL-6R pathways leading to STAT3, ERK, and AKT activation. For p38 activation, 25 min of stimulation with IL-6 was required. The wells were charged with radioimmunoprecipitation assay buffer (RIPA) at a concentration of 1×, cOmplete EDTA-free Protease Inhibitor Cocktail final concentration 1×, and phenylmethanesulfonyl fluoride (PMSF) 1 mM. Samples were shaken for 30 min followed by centrifugation at 12,000 RPM at 4 °C for 20 min to harvest the proteins. Proteins were stored at −80 °C until analysis by immunoblotting.
Samples (30 mg) of uterus, placenta, fetal membranes, as well as the fetal lung, brain, and intestine, were thawed and deposited in lysis buffer according to the manufacturer’s protocol (Qiagen RNeasy Plus Mini Kit). Cell lysis and RNA extraction were performed directly into RiboZol. RNA was extracted from tissue fragments and cells according to the manufacturer’s protocol. RNA was quantified with a NanoDrop 1000 spectrophotometer and samples (500 ng) were treated with DNAse I (1U). RNA was used to synthesize cDNA using iScript reverse transcription superMix. Quantitative gene expression analysis was performed on a Light Cycler 96 with iTaq Universal SYBR Green Supermix. […]
Target sequence in this assay (P08887 20-468): as the sequence (P08887 20-468) above
Target sequence in this assay (P40189 23-918 partner): as the sequence (P40189 23-918 partner) above
Target sequence in this assay (P05231 30-212 partner): as the sequence (P05231 30-212 partner) above

[5] = tested on: lung parenchyma; conditions: mouse, in vivo
Procedure: To determine the maximal delay of administration of HSJ633, LPS was injected as previously described, and HSJ633 was either administered 2 h or 6 h after the LPS injection at GD16. Dams were consistently observed for delivery until term (G18.5–19.5), and the body weight and survival rate (if 2 or more pups are alive, the litter is considered alive) of the neonates were recorded. The prematurity rate was assessed by determining the number of dams delivering prematurely (gestation length before 18.5 days) out of the total number of dams in the same group. The pups were sacrificed at PT7 for histological analysis.
Histology was performed as described by Habelrih et al (Habelrih et al, [2023]). Images were captured using ×10 objective with a Zeiss AxioScan.Z1.

[6] = tested on: HEK293 cells; assay: [125I]-HSJ633 binding on HEK293 cells devoid of IL-6R; set-up: species or system human; conditions: [125I]-HSJ633 10^−8 M, 1.5 h; four samples per group
Procedure: as §1, §2

[7] = tested on: LPS-induced preterm birth in CD-1 mice; assay: STAT3 inhibitor efficacy in LPS-induced PTB: gestational length and prematurity rate; format: in vivo, mouse; conditions: for prevention of LPS-induced PTB: 5 mg/kg/day s.c., twice a day, GD16; for % PTB: group value; for GD (gestation day): individual dams, one per line
Procedure: Timed pregnant CD-1 mice at days 16 and 17 of gestation were anesthetized with isoflurane and given intraperitoneal (i.p.) injections of LPS (4 μg in 100 μL saline on GD16 and 6 μg in 100 μL saline on GD17, total 10 μg) or vehicle (100 μL). Doses of LPS were selected based on previous reports (Chang et al, [2011]; Elovitz and Mrinalini, [2004]; Fidel et al, [1994]; Sadowsky et al, [2006]; Salminen et al, [2008]; Urakubo et al, [2001]), preliminary dose–response experiments, and knowing that a systemic maternal infection is associated with the onset of labor (Romero et al, [2001]). A total of 100 μL of HSJ633 or HSJ639 (2 mg/kg/day), an anti-IL-6R antibody (800 μg/kg/day) or vehicle was injected subcutaneously (s.c.) 30 min before injections of LPS (to allow distribution of drugs to target tissues) and repeated twice daily until GD18.5.
Thirty minutes before administering LPS, on GD16, NSC74859 (5 mg/kg/day solubilized in 20% DMSO + water, injected twice a day s.c.) or rmgp130/Fc Chimera (10 μg i.p. on GD16 and 10 μg s.c. on GD16.5) were injected into distinct dams. The same LPS-induction PTB model as described above was used for these experiments (4 μg on GD16 + 6 μg on GD17, i.p.). Delivery was assessed until term (GD18.5–19.5).

Compound: IL-6: human IL-6, Peprotech 200-06, endogenous IL-6R ligand
- TNF-α expression [1]: induced TNF-α expression
- displacement of [125I]-HSJ633 by IL-6 ([2]; [125I]-HSJ633 10^−8 M, IL-6 10^−4 M): not by non-radioactive IL-6; also recorded: IL-6 does not displace binding of HSJ633

Compound: O=C1OC2(c3ccc(O)cc3Oc3cc(O)ccc32)c2ccc(N=C=S)cc21 [FITC]
- placental fluorescence, LPS-treated [3]: increase in signal intensity in the placenta

Compound: CC(C)[C@@H](N)C(=O)N[C@H](CCCNC(=N)N)C(=O)N[C@H](CCCCN)C(=O)N[C@H](Cc1ccccc1)C(=O)N[C@H](CCC(N)=O)C(=O)N[C@H](CC(N)=O)C(=O)N[C@H](CO)C(=O)N1CCC[C@@H]1C(=O)N[C@H](C)C(=O)O [HSJ633] (HELM PEPTIDE1{[dV].[dR].[dK].[dF].[dQ].[dN].[dS].[dP].[dA]}$$$$V2.0)
- IC50 ([4]; HEK-Blue IL-6, HSJ633 10^−11–10^−4 M, IL-6 3.86 nM 6 h, RT-qPCR normalized to 18S, 3–8 samples per group, read-out: IC50 hIL-1β mRNA): 0.8 nM
- IC50 ([4]; HEK-Blue IL-6, HSJ633 10^−11–10^−4 M, IL-6 3.86 nM 6 h, RT-qPCR normalized to 18S, 3–8 samples per group, read-out: IC50 hIL-6 mRNA): 2 nM
- IC50 ([4]; HEK-Blue IL-6, HSJ633 10^−11–10^−4 M, IL-6 3.86 nM 6 h, RT-qPCR normalized to 18S, 3–8 samples per group, read-out: IC50 hTNF-a mRNA): 0.2 nM
- IC50 ([4]; HEK-Blue IL-6, IL-6 3.86 nM, 6 h, RT-qPCR, average over three cytokines, read-out: average IC50, inhibition of IL-6-induced expression of IL-1β, TNF-α, and IL-6 mRNA): ~1 nM
- IC50 ([2]; 1.5 h room temperature, gamma counter, read-out: IC50, displacement of bound [125I]-HSJ633 by cold HSJ633 (% of specific binding)): 12 nM
- alveolar density in lung, referee's reading of figure [5]: causes loss of alveolar density in the lung

Compound: [^125I]-HSJ633: HSJ633 iodine-labeled after Bolton–Hunter reaction ([dV][dR][dK][dF][dQ][dN][dS][dP][dA]; also: Bolton–Hunter reagent (3-(4-hydroxyphenyl)propionic acid) conjugated to primary amines, iodinated with 125I)
- [125I]-HSJ633 binding on HEK293 cells devoid of IL-6R [6]: No binding

Compound: Cc1ccc(S(=O)(=O)OCC(=O)Nc2ccc(C(=O)O)c(O)c2)cc1 [NSC74859]
- prevention of LPS-induced PTB [7]: successfully inhibited preterm birth
- prevention of LPS-induced PTB ([7]; listed as NCS74859): effective in preventing LPS-induced PTB
- % PTB ([7]; experiment of April 2022, less than 18 days = PTB): 25.00%
- GD (gestation day) ([7]; experiment of April 2022, 18.5 days and more = term): 18 and 18.5 and 19
- % PTB ([7]; experiment of May 2022): 20.00%
- GD (gestation day) ([7]; experiment of May 2022): 19.5 and 18.5 and 17.5
- % PTB ([7]; third, undated experiment): 42.86%
- GD (gestation day) ([7]; third, undated experiment): 17 and 17.5 and 19 and 19.5

Source: PMC12340070, “A novel modulator of IL-6R prevents inflammation-induced preterm birth and improves newborn outcome” (EMBO Molecular Medicine, 2025)
